The assay relates to Hyperlipidemic Hamster. The assay is described as follows: In Vivo Assay of Hypolipidemic Agents Using the Hyperlipidemic Hamster. As to conditions: for change in vivo at 50 mg/kg / change in vivo at 3 mg/kg / change in vivo at 10 mg/kg / change in vivo at 30 mg/kg: Mesocricetus auratus, po, 168 h; for change in vivo at 3 mg/kg: 3 mg/kg once daily oral; for change in vivo at 10 mg/kg: 10 mg/kg once daily oral; for change in vivo at 30 mg/kg: 30 mg/kg once daily oral. The procedure: In Vivo Assay of Hypolipidemic Agents Using the Hyperlipidemic Hamster
Hamsters are separated into groups of six and given a controlled cholesterol diet (Purina Chow #5001 containing 0.5% cholesterol) for seven days. Diet consumption is monitored to determine dietary cholesterol exposure in the face of test compounds. The animals are dosed with the test compound once daily beginning with the initiation of diet. Dosing is by oral gavage of 0.2mL of corn oil alone (control group) or solution (or suspension) of test compound in corn oil. All animals roodbund or in poor physical condition are euthanized. After seven days, the animals are anesthetized by IM injection of ketamine and sacrificed by decapitation. Blood is collected into vacutainer tubes containing EDTA for plasma lipid analysis and the liver excised for tissue lipid analysis. Data is reported as percent reduction of lipid versus control.
Using the test procedures described above, the following in vitro and in vivo data were obtained for the preferred compounds, which are referred to in the following table by the corresponding example numbers. For the in vitro ACAT data, negative percent inhibition denotes apparent stimulation,while positive numbers denote inhibition. For the in vivo results, data is reported as percent change versus control, therefore, negative numbers indicate a positive lipid-lowering effect.

[1] abbreviates: 50 mg/kg once daily oral, 7 days, percent change versus control, negative = lowering, read-out: % Reduction (in vivo) Cholest. Esters.
Where [2] appears, read: 50 mg/kg once daily oral, 7 days, percent change versus control, negative = lowering, read-out: % Reduction (in vivo) Serum Cholest.
The mark [3] stands for this setting: read-out: % Reduction (in vivo) Cholest. Esters.
Where [4] appears, read: read-out: % Reduction (in vivo) Serum Cholest.
Setting [5] is: 7 days, percent change versus control, negative = lowering, read-out: % Reduction (in vivo) Cholest. Esters.
Setting [6] is: 7 days, percent change versus control, negative = lowering, read-out: % Reduction (in vivo) Serum Cholest.
The mark [7] stands for this setting: 50 mg/kg once daily oral, 7 days, percent change versus control, negative = lowering.

Where two headings read alike, the source gives them in different places.

`COc1ccc([C@@H]2[C@@H](CCCc3ccccc3)C(=O)N2c2cccnc2)cc1` (relative stereo) [Example 1AM]: the change in vivo at 50 mg/kg by setting is: under setting [1], -29%; under setting [2], -12%.
For the compound `COc1ccc([C@@H]2[C@@H](CCCc3ccccc3)C(=O)N2c2ccc(OC(F)(F)F)cc2)cc1` (relative stereo) [Example 1AN], the change in vivo at 50 mg/kg was -85% under setting [1] and -34% under setting [2].
On to `COc1ccc([C@H]2[C@@H](CCCc3ccccc3)C(=O)N2c2ccc(Cl)cc2)cc1` (relative stereo) [Example 1AO], for which the change in vivo at 50 mg/kg runs as follows: under setting [1], -78%; under setting [2], -33%.
`COc1ccc([C@H]2[C@@H](CCCc3ccccc3)C(=O)N2c2ccc(C)cc2)cc1` (relative stereo) [Example 1AP]: the change in vivo at 50 mg/kg was -95% under setting [1] and -51% under setting [2].
Take `COc1ccc([C@H]2[C@@H](CCCc3ccccc3)C(=O)N2c2ccc(Oc3ccccc3)cc2)cc1` (relative stereo) [Example 1AQ]: the change in vivo at 50 mg/kg by setting is: under setting [1], -22%; under setting [2], -20%.
On to `COc1ccc(N2C(=O)[C@H](CCCc3ccccc3)[C@H]2c2nccn2COCC[Si](C)(C)C)cc1` (relative stereo) [Example 1AV], for which the change in vivo at 50 mg/kg is, setting by setting: under setting [3], 0%; under setting [4], 15%.
Take `COc1ccc(N2C(=O)[C@H](CCCc3ccccc3)[C@@H]2c2nccn2COCC[Si](C)(C)C)cc1` (relative stereo) [Example 1AW]: the change in vivo at 50 mg/kg was -16% under setting [3] and -14% under setting [4].
In the case of `COc1ccc(N2C(=O)[C@H](CCCc3ccccc3)[C@@H]2c2ccc(OC(C)C)cc2)cc1` (relative stereo) [Example 1AY], the change in vivo at 50 mg/kg was -78% under setting [1] and -28% under setting [2].
Turning to `CCCOc1ccc([C@H]2[C@@H](CCCc3ccccc3)C(=O)N2c2ccc(OC)cc2)cc1` (relative stereo) [Example 1AZ], the change in vivo at 50 mg/kg by setting is: under setting [1], -91%; under setting [2], -37%.
As for `COc1ccc(N2C(=O)[C@H](CCCc3ccccc3)[C@@H]2c2ccc(OC)c(C)c2)cc1` (relative stereo) [Example 1BA], the change in vivo at 50 mg/kg runs as follows: under setting [1], 0%; under setting [2], 0%.
For `CCCCOc1ccc([C@H]2[C@@H](CCCc3ccccc3)C(=O)N2c2ccc(OC)cc2)cc1` (relative stereo) [Example 1BR], the change in vivo at 50 mg/kg under setting [1] is -70% and the change in vivo at 50 mg/kg under setting [2] is -15%.
As to `COc1ccc(N2C(=O)[C@H](CCCc3ccccc3)[C@@H]2c2ccc(Oc3ccccc3)cc2)cc1` (relative stereo) [Example 1BS], the change in vivo at 50 mg/kg was -43% under setting [1] and 0% under setting [2].
As for `COc1ccc(N2C(=O)[C@H](CCCc3ccccc3)[C@@H]2c2ccc(-c3ccccc3)cc2)cc1` (relative stereo) [Example 1BT], the change in vivo at 50 mg/kg stood at 0% under setting [1] and 0% under setting [2].
As to `C=CCOc1ccc([C@H]2[C@@H](CCCc3ccccc3)C(=O)N2c2ccc(OC)cc2)cc1` (relative stereo) [Example 1BU], the change in vivo at 50 mg/kg is, setting by setting: under setting [1], -95%; under setting [2], -39%.
For `COc1ccc(N2C(=O)[C@H](CCCc3ccccc3)[C@@H]2c2cc(OC)c(OC)c(OC)c2)cc1` (relative stereo) [Example 1BV] the same measures were 0% and -11%.
Regarding `COc1ccc(N2C(=O)[C@H](CCCc3ccccc3)[C@@H]2c2cn(C)c3ccccc23)cc1` (relative stereo) [Example 1BW], the change in vivo at 50 mg/kg is, setting by setting: under setting [1], -29%; under setting [2], -9%.
For the compound `COc1ccc(N2C(=O)[C@H](CCCc3ccccc3)[C@@H]2c2ccnc3ccccc23)cc1` (relative stereo) [Example 1BX], the change in vivo at 50 mg/kg by setting is: under setting [1], 0%; under setting [2], 0%.
Turning to `CCOc1ccc([C@H]2[C@@H](CCCc3ccccc3)C(=O)N2c2ccccc2)cc1` (relative stereo) [Example 1BY], the change in vivo at 50 mg/kg is, setting by setting: under setting [1], -72%; under setting [2], -18%.
For `COc1ccc(N2C(=O)[C@H](CCCc3ccccc3)[C@@H]2c2cc3ccccc3o2)cc1` (relative stereo) [Example 1BZ] the same measures were 0% and -9%.
In the case of `COc1ccc(N2C(=O)[C@@H](CCCc3ccccc3)[C@@H]2c2cc3ccccc3o2)cc1` (relative stereo) [Example 1CA], the change in vivo at 50 mg/kg under setting [1] turned out to be 0% and the change in vivo at 50 mg/kg under setting [2] was -12%.
In the case of `COc1ccc([C@H]2[C@@H](CCCc3ccccc3)C(=O)N2c2ccc(O[Si](C)(C)C(C)(C)C)cc2)cc1` (relative stereo) [Example 1CB], the change in vivo at 50 mg/kg is, setting by setting: under setting [3], 0%; under setting [4], 0%.
With `COc1ccc([C@H]2[C@@H](CCOc3ccc(F)cc3)C(=O)N2c2ccccc2)cc1` (relative stereo) [Example 1CH], the change in vivo at 3 mg/kg is, setting by setting: under setting [5], -80%; under setting [6], -24%. The change in vivo at 10 mg/kg reads like this: under setting [5], -90%; under setting [6], -41%. For the same compound, the change in vivo at 50 mg/kg runs as follows: under setting [1], -95%; under setting [2], -49%.
`COc1ccc([C@@H]2[C@H](N(C)C)C(=O)N2c2ccccc2)cc1` (relative stereo) [Example 1CJ]: the change in vivo at 50 mg/kg under setting [1] worked out at 0% and the change in vivo at 50 mg/kg under setting [2] turned out to be 0%.
For `COc1ccc(N2C(=O)[C@@H](CCCc3ccccc3)[C@@H]2c2ccc(SC)cc2)cc1` (relative stereo) [Example 1CM], the change in vivo at 50 mg/kg under setting [1] was determined as 0% and the change in vivo at 50 mg/kg under setting [2] is 0%.
For `COc1ccc([C@@H]2[C@@H](CCOc3ccc(F)cc3)C(=O)N2c2ccc(OC)cc2)cc1` (relative stereo) [Example 5AA], the change in vivo at 50 mg/kg reads like this: under setting [1], -93%; under setting [2], -53%.
In the case of `COc1ccc([C@@H]2[C@@H](CCCc3ccccc3)C(=O)N2c2ccc(F)cc2)cc1` (relative stereo) [Example 5D], the change in vivo at 10 mg/kg runs as follows: under setting [5], -77%; under setting [6], -24%. The change in vivo at 30 mg/kg by setting is: under setting [5], -94%; under setting [6], -41%. Also, the change in vivo at 50 mg/kg by setting is: under setting [1], -95%; under setting [2], -38%.
As to `COc1ccc([C@@H]2[C@@H](CCCc3ccccc3)C(=O)N2c2cccc(OC)c2)cc1` (relative stereo) [Example 5E], the change in vivo at 50 mg/kg is, setting by setting: under setting [1], -91%; under setting [2], -38%.
For `COc1ccc([C@@H]2[C@@H](CCCc3ccccc3)C(=O)N2c2ccc(Cl)cc2)cc1` (relative stereo) [Example 5G] the same measures were -93% and -44%.
Turning to `CCOc1ccc(N2C(=O)[C@H](CCCc3ccccc3)[C@H]2c2ccc(OC)cc2)cc1` (relative stereo) [Example 5H], the change in vivo at 50 mg/kg runs as follows: under setting [1], -96%; under setting [2], -57%.
Regarding `COc1ccc([C@@H]2[C@@H](CCCc3ccccc3)C(=O)N2c2ccc(SC)cc2)cc1` (relative stereo) [Example 5I], the change in vivo at 50 mg/kg by setting is: under setting [1], -70%; under setting [2], -26%.
Turning to `COc1ccc([C@@H]2[C@@H](CCCc3ccccc3)C(=O)N2c2ccc(C)cc2)cc1` (relative stereo) [Example 5J], the change in vivo at 50 mg/kg reads like this: under setting [1], -90%; under setting [2], -38%.
As for `COc1ccc(N2C(=O)[C@H](CCCc3ccccc3)[C@H]2c2ccc(OCc3ccccc3)cc2)cc1` (relative stereo) [Example 5T], the change in vivo at 50 mg/kg reads like this: under setting [1], -48%; under setting [2], -15%.
`C=CCOc1ccc([C@@H]2[C@@H](CCCc3ccccc3)C(=O)N2c2ccc(OC)cc2)cc1` (relative stereo) [Example 5U]: the change in vivo at 50 mg/kg is -86% under setting [1] and -48% under setting [2].
As to `COc1ccc(N2C(=O)[C@H](CCCc3ccccc3)[C@H]2c2ccc(Oc3ccccc3)cc2)cc1` (relative stereo) [Example 5V], the change in vivo at 50 mg/kg was -77% under setting [1] and -37% under setting [2].
As to `COc1ccc([C@@H]2[C@@H](CCCc3ccccc3)C(=O)N2c2ccc(OC)cc2)cc1` (relative stereo) [Example 5W], under setting [7], the “% Reduction (in vivo) Cholest. Esters” value was -19% and the “% Reduction (in vivo) Serum Cholest.” value was found to be 0%.

(Values after patent publication US5688787A, “Substituted β-lactam compounds useful as hypochlesterolemic agents and processes for the preparation thereof” (priority 1996, dated 1997).)
